In PubChem BioAssay (NCI):
“And” between values parts separate entries of the source, which are not always exact repeats. Equal values may be shown once.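 Tested at 5 concentrations; 48 h exposure; 96-well plates; endpoints linearly interpolated, else capped at highest concentration. At the GI50, growth is halved. Definition used: TGI = concentration required for complete inhibition of growth.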

How the values were obtained:
Experiment in all cases: NCI anticancer screen, dose series, 48 h
786-0 renal = test system: 786-0 renal
DLD-1 colon = test system: DLD-1 colon
HOP-18 NSCLC = test system: HOP-18 NSCLC
KM20L2 colon = test system: KM20L2 colon
LXFL 529 NSCLC = test system: LXFL 529 NSCLC
M19-MEL melanoma = test system: M19-MEL melanoma
XF 498 CNS = test system: XF 498 CNS
DU-145 prostate = test system: DU-145 prostate
HS 578T breast = test system: HS 578T breast
NCI/ADR-RES ovarian = test system: NCI/ADR-RES ovarian

SMILES | TGI (786-0 renal) [µM] | TGI (DLD-1 colon) [µM] | TGI (HOP-18 NSCLC) [µM] | TGI (KM20L2 colon) | TGI (LXFL 529 NSCLC) [µM] | TGI (M19-MEL melanoma) [µM] | TGI (XF 498 CNS) [µM] | TGI (DU-145 prostate) [µM] | TGI (HS 578T breast) [µM] | TGI (NCI/ADR-RES ovarian) [µM] | GI50 (KM20L2 colon) [µM] | GI50 (LXFL 529 NSCLC) [µM] | GI50 (M19-MEL melanoma) [µM] | GI50 (HOP-18 NSCLC) | GI50 (DU-145 prostate) [µM]
CC1CC[P+](c2ccccc2)(c2ccccc2)CC1 | > 100 | > 100 | > 100 | > 100 µM | > 100 | > 100 | 77.4 |  |  |  |  |  |  |  | 
COC(=O)C(/C(=N\NC(N)=S)C(=O)Nc1ccccc1[N+](=O)[O-])c1cnc2ccccc2n1 (stereo not given) | > 100 | > 100 | > 100 | > 100 µM | > 100 | > 100 | > 100 |  |  |  |  |  |  |  | 
c1ccc2c(NCCCCCCNc3cccc4ccccc34)cccc2c1 | > 100 | > 100 | > 100 | > 100 µM | > 100 | > 100 | > 100 |  |  |  |  |  |  |  | 
O=c1cc(-c2ccccc2)[nH]c2cc(Cl)ccc12 | 12.1 | 23.8 | > 100 | 3.2 µM | 53.2 | > 100 | 1.71 |  |  |  |  |  |  |  | 
CCN=C(C#N)NCC | > 100 | > 100 | > 100 | > 100 µM | > 100 | > 100 | > 100 |  |  |  |  |  |  |  | 
CCOC(=O)c1cccnc1C(OC(C)=O)OC(C)=O | > 100 | > 100 | > 100 | > 100 µM | > 100 | > 100 | > 100 |  |  |  |  |  |  |  | 
COC(=O)/C(=N\NC(N)=O)C(C(=O)C=C(C)C)C(=O)C(=O)Nc1ccc(Cl)c(Cl)c1 (stereo not given) | > 100 | > 100 | > 100 | > 100 µM | > 100 | > 100 | > 100 |  |  |  |  |  |  |  | 
COc1ccc2nc(NC(=O)C(=O)NNC(=O)c3ccncc3)sc2c1 | > 100 | > 100 | > 100 | > 100 µM | > 100 | > 100 | > 100 |  |  |  |  |  |  |  | 
Nc1ccc(Sc2c3ccccc3nc3ccccc23)cc1 | 14.7 | 19.7 | 41.7 | 33.1 µM | 21 | 47.9 | 28 | 28.7 | > 68.4 | 36 |  |  |  |  | 
CC(C)C1N2CCCCC2[C@@H]2c3[nH]c4ccccc4c3CCN12 (stereo not given in full) | > 100 | > 100 | > 100 | > 100 µM | > 100 | > 100 | > 100 |  |  |  |  |  |  |  | 
Cc1cc(Cl)ccc1NC(=O)C(=O)C(C(=O)c1ccccc1)C1OC(=O)c2ccccc21 (stereo not given) | > 100 | > 100 | > 100 | > 100 µM | > 100 | > 100 | > 100 |  |  |  |  |  |  |  | 
CCOP1(=O)C=C(C)C(=C(Cl)Cl)C(C)=C1 (stereo not given) | > 100 | 78.5 | 46.9 | 6.76 µM and 65.3 µM | 24.1 | 36.3 | 35.7 |  |  |  | 4.53 | 5.53 | 12.9 |  | 
CCCCCCCCCCCCCB(O)O | > 100 | > 100 | > 100 | > 100 µM | > 100 | > 100 | > 100 |  |  |  |  |  |  | > 100 µM and 25.9 µM | 
O=C1C2C3C=CC(C2C(=O)N1CN1CCSCC1)C1C2C(=O)N(CN4CCSCC4)C(=O)C2C31 (stereo not given) | > 79.2 | > 79.3 | 91.5 | > 100 µM | > 100 | > 100 | > 100 |  |  |  |  |  |  |  | 78.4
CCOC1CC2OC(=O)C1C=C2C(=O)OC (stereo not given) | 75.9 | 65.8 | > 100 | > 100 µM | 36.1 | > 100 | 53.9 |  |  |  |  |  |  |  | 
O=C1C=CC2(C=C1)C[C@H](NC(=O)OCc1ccccc1)C(=O)O2 | 27.6 | 14.1 | 31.5 | 38.7 µM | 24.7 | 33.7 | 32 | 85.3 | > 100 |  |  |  |  |  | 
CCOC(=O)C(C(O)c1ccc([N+](=O)[O-])cc1)P(=O)(OCC)OCC (stereo not given) | > 100 | > 100 | > 100 | > 100 µM | > 100 | > 100 | > 100 |  |  |  |  |  |  |  | 
CC(=O)O[C@H]1CC2C=CC3C(CCC31)O2 (stereo not given in full) | > 100 | > 100 | > 100 | > 100 µM | > 100 | > 100 | > 100 |  |  |  |  |  |  |  | 
COc1cccc(NC(=O)C(=O)C2C=CCS2(=O)=O)c1 (stereo not given) | > 100 | > 100 | > 100 | > 100 µM | > 100 | > 100 | > 100 |  |  |  |  |  |  |  | 
CCOC(=O)C(=O)Nc1ccccc1C(C)C | > 100 | > 100 | > 100 | > 100 µM | > 100 | > 100 | > 100 |  |  |  |  |  |  |  | 
